Columns and labels:
Salmonella typhimurium [1] = experiment: Mutagenic activity in Salmonella typhimurium TA 100 at 1 to 1000 ug/well after 48 hrs by Ames test; type: toxicity, organism-based; settings: salmonella enterica subsp. enterica serovar typhimurium
Salmonella typhimurium [2] = experiment: Mutagenic activity in Salmonella typhimurium TA 100 at 1 to 1000 ug/well after 48 hrs by Ames test in presence of rat liver S9 fraction; type: toxicity, organism-based; settings: salmonella enterica subsp. enterica serovar typhimurium, s9, 48 h
Hepatitis C virus [3] = experiment: Antiviral activity against Hepatitis C virus genotype 1b infected in human HuH7 cells after 72 hrs by FRET assay; type: functional, organism-based, Hepacivirus hominis; settings: Huh-7, 72 h
[4] = Cytotoxicity against human HuH7 cells infected with HCV genotype 1b after 72 hrs by Alamar blue assay; type: cell-based, Huh-7
Hepatitis C virus [5] = experiment: Antiviral activity against Hepatitis C virus genotype 1a infected in human HuH7 cells after 72 hrs by FRET assay; type: functional, organism-based, Hepacivirus hominis; settings: subtype 1a, Huh-7, 72 h
[6] = tested on: Bovine viral diarrhea virus 1; experiment: Antiviral activity against Bovine viral diarrhea virus infected in human HuH7 cells by luciferase reporter gene assay; type: functional, organism-based; settings: Bovine viral diarrhea virus isolates and strains, Huh-7
Hepatitis C virus [7] = experiment: Antiviral activity against Hepatitis C virus genotype 3a infected in human HuH7 cells by FRET assay; type: functional, organism-based, Hepacivirus hominis; settings: Huh-7
[8] = Clearance in rat at 2 mg/kg, iv; type: ADME, organism-based; parameters: dose 2 mg/kg, route intravenous; settings: in vivo
Hepatitis C virus [9] = experiment: Antiviral activity against Hepatitis C virus genotype 2a J6 infected in human HuH7 cells by FRET assay; type: functional, organism-based, Hepacivirus hominis; settings: subtype 2a J6, Huh-7
Hepatitis C virus [10] = experiment: Antiviral activity against Hepatitis C virus genotype 1a infected in human HuH7 cells after 5 days by ELISA; type: functional, organism-based, Hepacivirus hominis; settings: subtype 1a, Huh-7, 120 h
Hepatitis C virus [11] = experiment: Antiviral activity against Hepatitis C virus genotype 5a infected in human HuH7 cells by FRET assay; type: functional, organism-based, Hepacivirus hominis; settings: Huh-7
[12] = Plasma concentration in rat at 5 mg/kg, po after 0.17 hrs; type: ADME, organism-based; parameters: dose 5 mg/kg, route oral
Hepatitis C virus [13] = experiment: Antiviral activity against Hepatitis C virus genotype 4a infected in human HuH7 cells by FRET assay; type: functional, organism-based, Hepacivirus hominis; settings: Huh-7
[14] = Metabolic stability in rat microsomes assessed as compound remaining after 10 mins; type: ADME, microsome; settings: liver microsomes, read-out: Stability
Hepatitis C virus [15] = experiment: Antiviral activity against Hepatitis C virus genotype 1b expressing […] resistant-mutant infected in human HuH7 cells after 72 hrs by FRET assay; type: functional, organism-based, Hepacivirus hominis; settings: Huh-7, 72 h
Hepatitis C virus [16] = experiment: Antiviral activity against Hepatitis C virus genotype 3a YH infected in human HuH7 cells by FRET assay; type: functional, organism-based, Hepacivirus hominis; settings: subtype 3a YH, Huh-7
[17] = Permeability of the compound at pH 7.4 by PAMPA; type: physicochemical; settings: read-out: permeability
[18] = Metabolic stability in human liver microsomes assessed as compound remaining after 10 mins; type: ADME; settings: read-out: Stability
[19] = Drug metabolism in assay medium assessed as parent compound level at 5 uM after 48 hrs by LC/MS analysis; type: physicochemical

SMILES: O=C(Nc1ccc(/C=C/c2ccc(NC(=O)[C@@H]3CCCN3C(=O)Cc3ccccc3)cc2)cc1)[C@@H]1CCCN1C(=O)Cc1ccccc1
- Activity (Salmonella typhimurium [1]): Non-toxic
- Activity (Salmonella typhimurium [2]): Non-toxic

SMILES: Nc1ccc(/C=C/c2ccc(NC(=O)[C@@H]3CCCN3C(=O)Cc3ccccc3)cc2)cc1
- Activity (Salmonella typhimurium [2]): Toxic

SMILES: O=C(Nc1ccc(-c2cnc(-c3ccc(NC(=O)[C@@H]4CCCN4C(=O)Cc4ccccc4)cc3)o2)cc1)[C@@H]1CCCN1C(=O)Cc1ccccc1
- EC50 (Hepatitis C virus [3]): 429 nM

SMILES: O=C(Nc1ccc(C#Cc2ccc(NC(=O)[C@@H]3CCCN3C(=O)Cc3ccccc3)cc2)cc1)[C@@H]1CCCN1C(=O)Cc1ccccc1
- CC50 at 72 h [4]: > 10000 nM
- EC50 (Hepatitis C virus [3]): 5.6 nM
- EC50 (Hepatitis C virus [5]): > 400 nM
- EC50 [6]: > 10000 nM

SMILES: CN(C)[C@@H](C(=O)N1CCC[C@H]1c1ncc(-c2ccc(-c3ccc(-c4cnc([C@@H]5CCCN5C(=O)[C@@H](c5ccccc5)N(C)C)[nH]4)cc3)cc2)[nH]1)c1ccccc1
- EC50 (Hepatitis C virus [7]): 0.015 nM
- clearance [8]: 17.4 mL/min/kg
- EC50 (Hepatitis C virus [9]): 0.032 nM
- EC50 (Hepatitis C virus [10]): 0.037 nM
- EC50 (Hepatitis C virus [11]): 0.032 nM
- concentration at 0.17 h [12]: 20 nM
- CC50 at 72 h [4]: 5860 nM
- EC50 (Hepatitis C virus [3]): 0.042 nM
- EC50 (Hepatitis C virus [13]): 0.013 nM
- remaining at 10 min [14]: 100%
- EC50 (Hepatitis C virus [15]): 233 nM
- EC50 [6]: 2350 nM
- EC50 (Hepatitis C virus [16]): 3.8 nM
- Papp [17]: 0.7 ×10⁻⁶ cm/s
- remaining at 10 min [18]: 100%

SMILES: CN(C)[C@H](C(=O)N1CCC[C@H]1c1ncc(-c2ccc(-c3ccc(-c4cnc([C@@H]5CCCN5C(=O)[C@H](c5ccccc5)N(C)C)[nH]4)cc3)cc2)[nH]1)c1ccccc1
- EC50 (Hepatitis C virus [10]): 704 nM
- CC50 at 72 h [4]: 3610 nM
- EC50 (Hepatitis C virus [3]): 5.4 nM
- EC50 [6]: 1270 nM

SMILES: COC(=O)N[C@@H](C(=O)N1CCC[C@H]1c1ncc(-c2ccc(-c3ccc(-c4cnc([C@@H]5CCCN5C(=O)[C@@H](c5ccccc5)N(C)C)[nH]4)cc3)cc2)[nH]1)c1ccccc1
- EC50 (Hepatitis C virus [10]): 0.049 nM
- CC50 at 72 h [4]: > 9700 nM
- EC50 (Hepatitis C virus [3]): 0.012 nM
- EC50 [6]: 3440 nM

SMILES: COC(=O)N[C@@H](C(=O)N1CCC[C@H]1c1ncc(-c2ccc(-c3ccc(-c4cnc([C@@H]5CCCN5C(=O)Cc5ccccc5)[nH]4)cc3)cc2)[nH]1)c1ccccc1
- EC50 (Hepatitis C virus [10]): 14.9 nM
- CC50 at 72 h [4]: > 10000 nM
- EC50 (Hepatitis C virus [3]): 0.004 nM
- EC50 [6]: 523 nM

SMILES: COC(=O)N[C@@H](C(=O)N1CCC[C@H]1c1ncc(-c2ccc(-c3ccc(-c4cnc([C@@H]5CCCN5C(=O)OC(C)(C)C)[nH]4)cc3)cc2)[nH]1)c1ccccc1
- CC50 at 72 h [4]: > 10000 nM
- EC50 (Hepatitis C virus [3]): 0.011 nM
- EC50 (Hepatitis C virus [5]): 203 nM
- EC50 [6]: 110 nM

SMILES: CC(C)(C)OC(=O)N1CCC[C@H]1c1ncc(-c2ccc(-c3ccc(-c4cnc([C@@H]5CCCN5C(=O)OC(C)(C)C)[nH]4)cc3)cc2)[nH]1
- CC50 at 72 h [4]: 9630 nM
- EC50 (Hepatitis C virus [3]): 102 nM
- EC50 (Hepatitis C virus [5]): 901 nM
- EC50 [6]: 2760 nM

SMILES: O=C(Cc1ccccc1)N1CCC[C@H]1c1nc2cc(C#Cc3ccc4nc([C@@H]5CCCN5C(=O)Cc5ccccc5)[nH]c4c3)ccc2[nH]1
- CC50 at 72 h [4]: > 10000 nM
- EC50 (Hepatitis C virus [3]): < 4.6 nM
- EC50 (Hepatitis C virus [5]): > 100 nM
- EC50 [6]: > 10000 nM

SMILES: CN(C)[C@@H](C(=O)N1CCC[C@H]1c1nc2cc(C#Cc3ccc4[nH]c([C@@H]5CCCN5C(=O)[C@@H](c5ccccc5)N(C)C)nc4c3)ccc2[nH]1)c1ccccc1
- EC50 (Hepatitis C virus [10]): 232 nM
- CC50 at 72 h [4]: 6390 nM
- EC50 (Hepatitis C virus [3]): 0.075 nM
- EC50 [6]: 3420 nM

SMILES: O=C(Cc1ccccc1)N1CCC[C@H]1c1nc2cc(C#Cc3ccc4oc([C@@H]5CCCN5C(=O)Cc5ccccc5)nc4c3)ccc2o1
- EC50 (Hepatitis C virus [10]): > 1000 nM
- CC50 at 72 h [4]: > 10000 nM
- EC50 (Hepatitis C virus [3]): > 1000 nM
- EC50 [6]: 412 nM
- Drug metabolism [19]: Active

SMILES: CN(C)[C@@H](C(=O)N1CCC[C@H]1c1nc2cc(C#Cc3ccc4oc([C@@H]5CCCN5C(=O)[C@@H](c5ccccc5)N(C)C)nc4c3)ccc2o1)c1ccccc1
- EC50 (Hepatitis C virus [10]): > 1000 nM
- CC50 at 72 h [4]: 4450 nM
- EC50 (Hepatitis C virus [3]): > 1000 nM
- EC50 [6]: 1390 nM

SMILES: O=C(Cc1ccccc1)N1CCC[C@H]1c1nc2ccc(C#Cc3ccc4nc([C@@H]5CCCN5C(=O)Cc5ccccc5)oc4c3)cc2o1
- EC50 (Hepatitis C virus [10]): > 1000 nM
- CC50 at 72 h [4]: > 10000 nM
- EC50 (Hepatitis C virus [3]): > 1000 nM
- EC50 [6]: 7980 nM
- Drug metabolism [19]: Active

SMILES: CN(C)[C@@H](C(=O)N1CCC[C@H]1c1nc2ccc(C#Cc3ccc4nc([C@@H]5CCCN5C(=O)[C@@H](c5ccccc5)N(C)C)oc4c3)cc2o1)c1ccccc1
- EC50 (Hepatitis C virus [10]): > 1000 nM
- CC50 at 72 h [4]: 2720 nM
- EC50 (Hepatitis C virus [3]): < 4.6 nM
- EC50 (Hepatitis C virus [15]): > 1000 nM
- EC50 [6]: 390 nM

SMILES: CN(C)[C@@H](C(=O)N1CCC[C@H]1C(=O)Nc1ccc(-c2cnc(-c3ccc(NC(=O)[C@@H]4CCCN4C(=O)[C@@H](c4ccccc4)N(C)C)cc3)o2)cc1)c1ccccc1
- CC50 at 72 h [4]: 6010 nM
- EC50 (Hepatitis C virus [3]): 677 nM
- EC50 (Hepatitis C virus [5]): 568 nM
- EC50 [6]: 1570 nM

SMILES: CN(C)[C@@H](C(=O)N1CCC[C@H]1c1nc2cc(-c3cnc(-c4ccc5[nH]c([C@@H]6CCCN6C(=O)[C@@H](c6ccccc6)N(C)C)nc5c4)o3)ccc2[nH]1)c1ccccc1
- EC50 (Hepatitis C virus [10]): 973 nM
- CC50 at 72 h [4]: > 10000 nM
- EC50 (Hepatitis C virus [3]): < 4.6 nM
- EC50 [6]: 4960 nM

SMILES: CN(C)[C@@H](C(=O)N1CCC[C@H]1C(=O)Nc1cccc(-c2ncc(-c3ccc4nc([C@@H]5CCCN5C(=O)[C@@H](c5ccccc5)N(C)C)[nH]c4c3)o2)c1)c1ccccc1
- EC50 (Hepatitis C virus [10]): 3.5 nM
- CC50 at 72 h [4]: 8610 nM
- EC50 (Hepatitis C virus [3]): 0.14 nM
- EC50 (Hepatitis C virus [15]): > 1000 nM
- EC50 [6]: 3090 nM

SMILES: CN(C)[C@@H](C(=O)N1CCC[C@H]1C(=O)Nc1cccc(-c2cnc(-c3cccc(NC(=O)[C@@H]4CCCN4C(=O)[C@@H](c4ccccc4)N(C)C)c3)o2)c1)c1ccccc1
- CC50 at 72 h [4]: 4730 nM
- EC50 (Hepatitis C virus [3]): 0.16 nM
- EC50 (Hepatitis C virus [5]): 738 nM
- EC50 [6]: 1160 nM

SMILES: CN(C)[C@@H](C(=O)N1CCC[C@H]1C(=O)Nc1ccc(-c2cnc(-c3cccc(NC(=O)[C@@H]4CCCN4C(=O)[C@@H](c4ccccc4)N(C)C)c3)o2)cc1)c1ccccc1
- CC50 at 72 h [4]: 5760 nM
- EC50 (Hepatitis C virus [3]): 0.39 nM
- EC50 (Hepatitis C virus [5]): 1.6 nM
- EC50 [6]: 1220 nM

SMILES: O=C(Cc1ccccc1)N1CCC[C@H]1c1ncc(-c2ccc(-c3ccc(-c4cnc([C@@H]5CCCN5C(=O)Cc5ccccc5)[nH]4)cc3)cc2)[nH]1
- CC50 at 72 h [4]: > 10000 nM
- EC50 (Hepatitis C virus [3]): 0.33 nM
- EC50 (Hepatitis C virus [5]): 283 nM
- EC50 [6]: 596 nM

SMILES: COC(=O)N[C@@H](C(=O)N1CCC[C@H]1c1ncc(-c2ccc(-c3ccc(-c4cnc([C@@H]5CCCN5C(=O)[C@H](NC(=O)OC)c5ccccc5)[nH]4)cc3)cc2)[nH]1)c1ccccc1
- EC50 (Hepatitis C virus [7]): 0.004 nM
- clearance [8]: 11.1 mL/min/kg
- EC50 (Hepatitis C virus [9]): 0.023 nM
- EC50 (Hepatitis C virus [10]): 0.028 nM
- EC50 (Hepatitis C virus [11]): 0.014 nM
- CC50 at 72 h [4]: > 10000 nM
- EC50 (Hepatitis C virus [3]): 0.0067 nM
- EC50 (Hepatitis C virus [13]): 0.0057 nM
- remaining at 10 min [14]: 100%
- EC50 (Hepatitis C virus [15]): 166 nM
- EC50 [6]: 1460 nM
- EC50 (Hepatitis C virus [16]): 4.4 nM
- remaining at 10 min [18]: 100%

SMILES: CN(C)C(C(=O)N1CCC[C@H]1C(=O)Nc1ccc(-c2ncc(-c3ccc4[nH]c([C@@H]5CCCN5C(=O)[C@@H](c5ccccc5)N(C)C)nc4c3)o2)cc1)c1ccccc1 (single isomer, unassigned)
- EC50 (Hepatitis C virus [10]): 251 nM
- CC50 at 72 h [4]: > 10000 nM
- EC50 (Hepatitis C virus [3]): 0.077 nM
- EC50 [6]: > 370 nM
